One experiment concerns the target LYN (Homo sapiens, UniProt P07948). In words: In vitro kinase selectivity assay, LYN (Z'-Lyte). The conditions noted are these: read-out: LYN kinase inhibitory activity grade. The class given is biochemical. On the procedure:
(§1) The assay platform for EGFR and ITK kinase activities was established using time-resolved fluorescence resonance energy transfer-based method; the assay platform for LCK, SRC and LYN kinase activities was established using Z′-Lyte method; and the assay platform for TEC and JAK3 kinase activities was established using Lance Ultra method. The inhibitory effects of the compounds disclosed herein on different kinase activities were tested separately for each compound at 11 concentrations. The IC50 value of each compound was calculated using Graphpad Prism software.

In the next experiment the target is SRC (Homo sapiens, UniProt P12931). The experiment in a line: In vitro kinase selectivity assay, SRC (Z'-Lyte). The class given is biochemical. Particulars: read-out: SRC kinase inhibitory activity grade. On the procedure: as §1
In the next experiment the target is T1, ITK (Homo sapiens, UniProt Q08881).
T1 sequence (Q08881 1-620): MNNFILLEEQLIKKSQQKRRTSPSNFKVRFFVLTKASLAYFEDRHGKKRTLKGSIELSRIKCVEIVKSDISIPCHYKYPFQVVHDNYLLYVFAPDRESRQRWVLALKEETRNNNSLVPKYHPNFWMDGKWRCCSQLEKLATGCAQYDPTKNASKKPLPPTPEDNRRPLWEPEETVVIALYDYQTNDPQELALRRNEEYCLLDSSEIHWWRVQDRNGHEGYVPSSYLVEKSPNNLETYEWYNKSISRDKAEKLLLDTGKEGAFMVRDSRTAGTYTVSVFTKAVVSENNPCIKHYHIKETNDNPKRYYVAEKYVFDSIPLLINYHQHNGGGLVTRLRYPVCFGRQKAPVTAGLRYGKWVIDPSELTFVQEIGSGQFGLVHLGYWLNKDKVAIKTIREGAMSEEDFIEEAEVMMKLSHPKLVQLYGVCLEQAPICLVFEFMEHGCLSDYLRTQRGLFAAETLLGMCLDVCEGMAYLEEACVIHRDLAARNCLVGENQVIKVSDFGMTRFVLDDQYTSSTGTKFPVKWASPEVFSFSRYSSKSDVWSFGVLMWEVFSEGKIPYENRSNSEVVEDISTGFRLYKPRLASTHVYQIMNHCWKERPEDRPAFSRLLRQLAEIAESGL
In words: In vitro kinase selectivity assay, ITK (TR-FRET). The class given is biochemical. Particulars: read-out: ITK kinase inhibitory activity grade. As for the experimental part:
as §1

Experiment [1] concerns diffuse large B-cell lymphoma cell line TMD-8. In words: Pharmacodynamic assay, TMD-8 xenograft in NOD.SCID mice. The class given is in vivo. Particulars: p.o. daily for 21 days. On the procedure:
Severe immunodeficiency NOD.SCID mice were purchased from Beijing Vital River Laboratory Animal Technology Co., Ltd., and were housed in SPF grade animal room. After TMD-8 cells were cultured to the sufficient amount, the cells were collected by centrifugation and washed twice with PBS. Finally, the cells were resuspended in serum-free RPMI 1640 medium plus Matrigel (1:1 v/v). 0.2 ml of cell suspension was injected subcutaneously on the right flank of each mouse using 1 ml syringe and 25 G syringe needle. The tumor size was measured with a caliper after about one week post injection. The tumor volume was calculated according to the following formula: tumor volume=(length×width^2)/2. When the tumor volume reached about 100-200 mm^3, the mice were grouped and p.o. administered daily for 21 days.

Another experiment has as its target EGFR (Homo sapiens, UniProt P00533). In words: In vitro kinase selectivity assay, EGFR (TR-FRET). The class given is biochemical. The conditions noted are these: read-out: EGFR kinase inhibitory activity grade. As for the experimental part: as §1
(TR-FRET usually uses a lanthanide donor and a delayed reading to cut background.)

A further experiment deals with T2, TEC (Homo sapiens, UniProt P42680).
T2 sequence (P42680 1-631): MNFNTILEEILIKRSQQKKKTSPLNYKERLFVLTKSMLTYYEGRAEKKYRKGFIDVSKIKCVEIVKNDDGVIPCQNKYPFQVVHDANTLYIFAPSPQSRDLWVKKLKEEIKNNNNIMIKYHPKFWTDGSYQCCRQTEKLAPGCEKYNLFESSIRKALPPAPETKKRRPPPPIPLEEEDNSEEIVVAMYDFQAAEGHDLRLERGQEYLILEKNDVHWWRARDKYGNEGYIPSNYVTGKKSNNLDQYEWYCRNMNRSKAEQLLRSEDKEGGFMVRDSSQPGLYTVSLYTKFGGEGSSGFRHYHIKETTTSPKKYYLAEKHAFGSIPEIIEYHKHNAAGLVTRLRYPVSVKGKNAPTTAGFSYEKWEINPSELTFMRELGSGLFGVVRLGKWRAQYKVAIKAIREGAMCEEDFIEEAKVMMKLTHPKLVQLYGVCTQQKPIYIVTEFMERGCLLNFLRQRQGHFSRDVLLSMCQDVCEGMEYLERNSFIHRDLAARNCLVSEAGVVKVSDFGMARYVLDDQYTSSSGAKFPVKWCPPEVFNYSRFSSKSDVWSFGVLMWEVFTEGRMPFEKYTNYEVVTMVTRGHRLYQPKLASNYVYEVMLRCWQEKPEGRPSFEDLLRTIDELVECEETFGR
In words: In vitro kinase selectivity assay, TEC (Lance Ultra). Particulars: read-out: TEC kinase inhibitory activity grade. The class given is biochemical. On the procedure: as §1

For another experiment, the target named is LCK (Homo sapiens, UniProt P06239). The experiment in a line: In vitro kinase selectivity assay, LCK (Z'-Lyte). The class given is biochemical. The conditions noted are these: read-out: LCK kinase inhibitory activity grade. On the procedure: as §1
Another experiment addresses Recombinant Btk (Homo sapiens, UniProt Q06187). In words: Kinase activity (BTK) inhibition assay, TR-FRET. The class given is biochemical. Particulars: read-out: BTK kinase inhibitory activity grade (A/B/C). On the procedure:
Kinase Activity (BTK) Inhibition Assay
The inhibitory effects of the compounds disclosed herein on BTK kinase activity were tested in an assay based on a time resolved fluorescence resonance energy transfer (TR-FRET) method. Recombinant Btk was pre-incubated with the compound disclosed herein in an assay buffer containing 50 mM. Tris pH 7.4, 10 mM MgCl2, 2 mM MnCl2, 0.1 mM EDTA, 1 mM DTT, 20 nM SEB, 0.1% BSA, 0.005% tween-20 at room temperature for 1 hour. The reaction was initiated by the addition of ATP (at the ATP Km concentration) and the peptide substrate (Biotin-[…]-NH2). After incubation for 1 hour at room temperature, an equal volume of stop solution containing 50 mM HEPES pH 7.0, 800 mM KF, 20 mM EDTA, 0.1% BSA, p-Tyr66 antibody linked with Eu cryptate and streptavidin-labeled XL665 was added to stop the reaction. The plate was incubated for an additional hour at room temperature and then the TR-FRET signal was read on a BMG PHERAstar FS instrument (ex337 nm, em 620 nm/665 nm). Based on the ratio of the signal of fluorescence at […] to 665 nm, the enzyme activity was calculated with an increased compound concentration. IC50 of each compound was obtained by fitting the data to the four-parameter equation of Graphpad Prism software.

Recombinant Btk, sequence (Q06187 whole entry): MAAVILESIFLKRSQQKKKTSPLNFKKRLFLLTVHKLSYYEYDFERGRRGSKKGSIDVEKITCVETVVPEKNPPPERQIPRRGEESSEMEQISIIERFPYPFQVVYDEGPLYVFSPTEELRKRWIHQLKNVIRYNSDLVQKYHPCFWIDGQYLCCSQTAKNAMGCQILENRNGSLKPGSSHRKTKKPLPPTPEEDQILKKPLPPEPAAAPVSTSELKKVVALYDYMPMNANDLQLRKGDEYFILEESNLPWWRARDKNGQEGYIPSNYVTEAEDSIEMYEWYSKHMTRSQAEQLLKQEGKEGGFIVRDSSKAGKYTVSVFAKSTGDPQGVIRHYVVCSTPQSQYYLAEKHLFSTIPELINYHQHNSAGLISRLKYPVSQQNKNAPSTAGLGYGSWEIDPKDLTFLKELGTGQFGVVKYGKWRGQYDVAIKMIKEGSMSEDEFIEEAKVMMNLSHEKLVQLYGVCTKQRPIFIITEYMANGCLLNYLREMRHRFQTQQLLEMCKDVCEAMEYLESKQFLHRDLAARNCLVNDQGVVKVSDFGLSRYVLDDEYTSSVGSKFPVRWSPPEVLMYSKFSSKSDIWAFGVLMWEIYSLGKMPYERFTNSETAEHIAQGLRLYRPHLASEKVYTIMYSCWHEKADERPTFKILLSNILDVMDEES
LCK, sequence (P06239 whole entry, species assumed): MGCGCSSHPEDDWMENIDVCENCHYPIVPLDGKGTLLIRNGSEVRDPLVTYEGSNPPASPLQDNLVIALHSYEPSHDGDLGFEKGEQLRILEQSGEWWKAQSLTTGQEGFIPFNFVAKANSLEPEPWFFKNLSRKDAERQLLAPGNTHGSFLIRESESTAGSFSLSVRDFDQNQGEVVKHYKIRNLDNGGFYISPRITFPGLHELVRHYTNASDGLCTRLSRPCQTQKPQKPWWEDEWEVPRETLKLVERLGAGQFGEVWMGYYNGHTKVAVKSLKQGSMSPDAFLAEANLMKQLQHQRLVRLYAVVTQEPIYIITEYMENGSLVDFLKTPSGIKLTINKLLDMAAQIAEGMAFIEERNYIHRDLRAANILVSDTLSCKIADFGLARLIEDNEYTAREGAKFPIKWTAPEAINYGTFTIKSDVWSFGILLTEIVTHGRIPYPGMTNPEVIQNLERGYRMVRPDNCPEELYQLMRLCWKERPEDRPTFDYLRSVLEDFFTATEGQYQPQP
EGFR, sequence (P00533 25-1210): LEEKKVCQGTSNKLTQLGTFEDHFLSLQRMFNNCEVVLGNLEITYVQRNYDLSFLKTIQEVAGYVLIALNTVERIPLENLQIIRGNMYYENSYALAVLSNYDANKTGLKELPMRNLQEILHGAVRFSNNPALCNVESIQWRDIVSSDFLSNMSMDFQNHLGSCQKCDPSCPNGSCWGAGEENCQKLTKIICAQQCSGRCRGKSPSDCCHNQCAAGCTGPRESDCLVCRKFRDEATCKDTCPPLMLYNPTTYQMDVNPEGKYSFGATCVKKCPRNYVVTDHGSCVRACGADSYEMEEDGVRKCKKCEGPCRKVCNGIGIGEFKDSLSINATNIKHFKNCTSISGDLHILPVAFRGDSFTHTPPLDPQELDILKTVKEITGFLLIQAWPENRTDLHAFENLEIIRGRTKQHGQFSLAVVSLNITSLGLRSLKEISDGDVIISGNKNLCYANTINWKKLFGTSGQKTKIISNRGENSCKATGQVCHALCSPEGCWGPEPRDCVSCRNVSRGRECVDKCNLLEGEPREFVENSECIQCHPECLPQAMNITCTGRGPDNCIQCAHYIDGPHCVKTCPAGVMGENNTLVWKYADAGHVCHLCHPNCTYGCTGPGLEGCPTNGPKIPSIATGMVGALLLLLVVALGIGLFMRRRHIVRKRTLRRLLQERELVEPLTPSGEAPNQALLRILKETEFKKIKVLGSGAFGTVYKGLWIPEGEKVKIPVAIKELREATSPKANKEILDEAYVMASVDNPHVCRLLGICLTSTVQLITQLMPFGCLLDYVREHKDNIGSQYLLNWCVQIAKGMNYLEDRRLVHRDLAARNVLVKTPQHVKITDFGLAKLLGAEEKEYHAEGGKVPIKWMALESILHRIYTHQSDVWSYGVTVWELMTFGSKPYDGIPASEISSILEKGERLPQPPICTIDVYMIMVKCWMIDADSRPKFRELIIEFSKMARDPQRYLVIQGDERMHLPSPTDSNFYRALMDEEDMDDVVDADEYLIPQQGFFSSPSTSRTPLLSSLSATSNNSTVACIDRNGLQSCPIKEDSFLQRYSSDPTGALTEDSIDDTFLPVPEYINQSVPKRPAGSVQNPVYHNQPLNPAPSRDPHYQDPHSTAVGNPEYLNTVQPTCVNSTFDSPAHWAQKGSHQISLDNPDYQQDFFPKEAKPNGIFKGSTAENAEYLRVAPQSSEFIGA
LYN, sequence (P07948 whole entry, species assumed): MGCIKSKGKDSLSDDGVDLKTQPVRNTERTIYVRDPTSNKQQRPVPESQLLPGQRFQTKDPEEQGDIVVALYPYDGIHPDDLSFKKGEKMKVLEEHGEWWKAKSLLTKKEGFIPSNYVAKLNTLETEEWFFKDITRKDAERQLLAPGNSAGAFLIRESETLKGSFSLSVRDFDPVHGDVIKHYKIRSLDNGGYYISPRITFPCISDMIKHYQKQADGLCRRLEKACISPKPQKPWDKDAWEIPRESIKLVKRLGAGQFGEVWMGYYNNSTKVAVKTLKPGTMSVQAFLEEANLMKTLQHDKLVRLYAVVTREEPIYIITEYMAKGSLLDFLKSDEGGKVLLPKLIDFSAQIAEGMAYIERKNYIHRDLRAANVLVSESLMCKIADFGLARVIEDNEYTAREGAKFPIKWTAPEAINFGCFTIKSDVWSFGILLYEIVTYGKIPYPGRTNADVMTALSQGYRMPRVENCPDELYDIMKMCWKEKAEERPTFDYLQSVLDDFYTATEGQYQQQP
SRC, sequence (P12931 whole entry, species assumed): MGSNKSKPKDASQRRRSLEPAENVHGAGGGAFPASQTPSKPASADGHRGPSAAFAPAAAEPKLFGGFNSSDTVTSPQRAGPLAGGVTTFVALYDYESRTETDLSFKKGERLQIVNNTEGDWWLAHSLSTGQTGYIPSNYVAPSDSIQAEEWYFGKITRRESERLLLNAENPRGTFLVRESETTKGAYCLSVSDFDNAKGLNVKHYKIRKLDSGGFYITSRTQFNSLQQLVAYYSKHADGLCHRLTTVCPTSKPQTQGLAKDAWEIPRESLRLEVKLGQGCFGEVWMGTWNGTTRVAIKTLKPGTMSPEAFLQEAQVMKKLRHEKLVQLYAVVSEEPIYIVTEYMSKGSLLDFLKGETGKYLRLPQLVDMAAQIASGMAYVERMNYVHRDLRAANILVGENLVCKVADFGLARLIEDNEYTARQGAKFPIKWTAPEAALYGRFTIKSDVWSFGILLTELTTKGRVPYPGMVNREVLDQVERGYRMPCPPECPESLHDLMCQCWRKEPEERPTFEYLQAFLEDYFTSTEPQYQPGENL

For the molecule `N#CN1C[C@H](n2nc(-c3ccc(Oc4ccc(F)cc4F)cc3)c(C(N)=O)c2N)CCC12CC2` [WS-411, (R)-5-amino-1-(4-cyano-4-azaspiro[2.5]oct-6-yl)-3-(4-(2,4-difluorophenoxy)phenyl)-1H-pyrazole-4-carboxamide], the IC50 was 100 to 1000 nM on LYN; over 1000 nM on SRC; over 1000 nM at ITK; over 1000 nM on EGFR; under 100 nM on TEC; 100 to 1000 nM at LCK. In addition, the IC50 at Recombinant Btk is under 100 nM. Moreover, the “growth of TMD-8 tumor in vivo” value in experiment [1] is given as “significantly inhibited the growth”.

As for `N#CN1CC(n2nc(-c3ccc(Oc4ccc(F)cc4F)cc3)c(C(N)=O)c2N)CCC12CC2` (centres unmarked) [WS-408, 5-amino-1-(4-cyano-4-azaspiro[2.5]oct-6-yl)-3-(4-(2,4-difluorophenoxy)phenyl)-1H-pyrazole-4-carboxamide], the IC50 at Recombinant Btk is under 100 nM.

For `CC#CC(=O)N1C[C@@H](n2nc(-c3ccc(Oc4ccc(Cl)cn4)cc3)c(C(N)=O)c2N)CCC12CC2` [WS-417], the IC50 at Recombinant Btk is 100 to 1000 nM.

For `C[C@H]1CC[C@@H](n2nc(-c3ccc(Oc4ccc(Cl)cn4)cc3)c(C(N)=O)c2N)CN1C#N` [WS-401, 5-amino-3-(4-((5-chloropyridin-2-yl)oxy)phenyl)-1-((3R,6S)-1-cyano-6-methylpiperidin-3-yl)-1H-pyrazole-4-carboxamide], the IC50 on Recombinant Btk was under 100 nM.

In the case of `NC(=O)c1c(-c2ccc(Oc3ccc(F)cc3F)cc2)nn(C2CCC3(CC3)N(C(=O)/C=C/CO)C2)c1N` (centres unmarked) [WS-409, (E)-5-amino-3-(4-(2,4-difluorophenoxy)phenyl)-1-(4-(4-hydroxybut-2-enoyl)-4-azaspiro[2.5]oct-6-yl)-1H-pyrazole-4-carboxamide], at Recombinant Btk, the IC50 was under 100 nM.

For `C[C@@H]1CC[C@H](n2nc(-c3ccc(Oc4ccc(Cl)cn4)cc3)c(C(N)=O)c2N)CN1C#N` [WS-402, 5-amino-3-(4-((5-chloropyridin-2-yl)oxy)phenyl)-1-((3S,6R)-1-cyano-6-methylpiperidin-3-yl)-1H-pyrazole-4-carboxamide], the IC50 on Recombinant Btk lay in the range of 100 to 1000 nM.

As for `C[C@H]1CC[C@H](n2nc(-c3ccc(Oc4ccc(Cl)cn4)cc3)c(C(N)=O)c2N)CN1C#N` [WS-404, 5-amino-3-(4-((5-chloropyridin-2-yl)oxy)phenyl)-1-((3S,6S)-1-cyano-6-methylpiperidin-3-yl)-1H-pyrazole-4-carboxamide], at Recombinant Btk, the IC50 is 100 to 1000 nM.

For the molecule `N#CN1CC(n2nc(-c3ccc(Oc4ccc(Cl)cn4)cc3)c(C(N)=O)c2N)CCC12CC2` (centres unmarked) [WS-405, 5-amino-3-(4-((5-chloropyridin-2-yl)oxy)phenyl)-1-(4-cyano-4-azaspiro[2.5]oct-6-yl)-1H-pyrazole-4-carboxamide], on Recombinant Btk, the IC50 is under 100 nM.

For `CC#CC(=O)N1C[C@H](n2nc(-c3ccc(Oc4ccc(F)cc4F)cc3)c(C(N)=O)c2N)CCC12CC2` [WS-421, (R)-5-amino-1-(4-(2-butynoyl)-4-azaspiro[2.5]oct-6-yl)-3-(4-(2,4-difluorophenoxy)phenyl)-1H-pyrazole-4-carboxamide], the IC50 at Recombinant Btk is under 100 nM.

As for `C=CC(=O)N1CC(n2nc(-c3ccc(Oc4ccc(F)cc4F)cc3)c(C(N)=O)c2N)CCC12CC2` (centres unmarked) [WS-410, 1-(4-acryloyl-4-azaspiro[2.5]oct-6-yl)-5-amino-3-(4-(2,4-difluorophenoxy)phenyl)-1H-pyrazole-4-carboxamide], the IC50 on Recombinant Btk is under 100 nM.

For `CC#CC(=O)N1C[C@H](n2nc(-c3ccc(Oc4ccc(F)cc4F)cc3)c(C(N)=O)c2N)CCC12CC2` [WS-422, (R)-5-amino-1-(4-(2-butynoyl)-4-azaspiro[2.5]oct-6-yl)-3-(4-(2,4-difluorophenoxy)phenyl)-1H-pyrazole-4-carboxamide], in experiment [1], the “growth of TMD-8 tumor in vivo” value was “significantly inhibited the growth”.

Regarding `N#CN1C[C@@H](n2nc(-c3ccc(Oc4ccc(F)cc4F)cc3)c(C(N)=O)c2N)CCC12CC2` [WS-412, (S)-5-amino-1-(4-cyano-4-azaspiro[2.5]oct-6-yl)-3-(4-(2,4-difluorophenoxy)phenyl)-1H-pyrazole-4-carboxamide], the IC50 on Recombinant Btk was over 1000 nM.

In the case of `NC(=O)c1c(-c2ccc(Oc3ccc(Cl)cn3)cc2)nn(C2CCC3(CC3)N(C(=O)/C=C/CO)C2)c1N` (centres unmarked) [WS-406, (E)-5-amino-3-(4-((5-chloropyridin-2-yl)oxy)phenyl)-1-(4-(4-hydroxybut-2-enoyl)-4-azaspiro[2.5]oct-6-yl)-1H-pyrazole-4-carboxamide], the IC50 at Recombinant Btk is under 100 nM.

Regarding `C[C@@H]1CC[C@@H](n2nc(-c3ccc(Oc4ccc(Cl)cn4)cc3)c(C(N)=O)c2N)CN1C#N` [WS-403, 5-amino-3-(4-((5-chloropyridin-2-yl)oxy)phenyl)-1-((3R,6R)-1-cyano-6-methylpiperidin-3-yl)-1H-pyrazole-4-carboxamide], the IC50 at Recombinant Btk was 100 to 1000 nM.

Turning to `N#CN1C[C@@H](n2nc(-c3ccc(Oc4ccc(Cl)cn4)cc3)c(C(N)=O)c2N)CCC12CC2` [WS-414, (S)-5-amino-3-(4-((5-chloropyridin-2-yl)oxy)phenyl)-1-(4-cyano-4-azaspiro[2.5]oct-6-yl)-1H-pyrazole-4-carboxamide], on Recombinant Btk, the IC50 lay in the range of 100 to 1000 nM.

Take `C=CC(=O)N1CC(n2nc(-c3ccc(Oc4ccc(Cl)cn4)cc3)c(C(N)=O)c2N)CCC12CC2` (centres unmarked) [WS-407, 1-(4-acryloyl-4-azaspiro[2.5]oct-6-yl)-5-amino-3-(4-((5-chloropyridin-2-yl)oxy)phenyl)-1H-pyrazole-4-carboxamide]: on Recombinant Btk, the IC50 is under 100 nM.

The values above are taken from patent US10882843B2, “5-aminopyrazole carboxamide derivative as BTK inhibitor and preparation method and pharmaceutical composition thereof” (SUZHOU SINOVENT PHARMACEUTICALS CO., LTD., priority 2016, dated 2021).
